From ChEMBL document CHEMBL1201862, “PubChem BioAssay data set” (2004)
Active and inactive are the calls of the source.

Key:
[1] = target: G-protein coupled receptor 35 (Homo sapiens, UniProt Q9HC97); assay: inhibition of zaprinast-stimulated GPR35 beta-arrestin translocation – imaging, U2OS, beta-arrestin-GFP, zaprinast agonist, primary screen (AID 2058); assay type: functional;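 note: antagonist potency meaning inhibition of agonist-induced arrestin redistribution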
[2] = cells; assay type: functional
[3] = target: T1, Mitochondrial peptide methionine sulfoxide reductase (Bos taurus, UniProt P54149); assay: Absorbance-based biochemical high throughput dose response assay for activators of Methionine sulfoxide reductase A (MsrA).; assay type: functional
T1 sequence (P54149 whole entry): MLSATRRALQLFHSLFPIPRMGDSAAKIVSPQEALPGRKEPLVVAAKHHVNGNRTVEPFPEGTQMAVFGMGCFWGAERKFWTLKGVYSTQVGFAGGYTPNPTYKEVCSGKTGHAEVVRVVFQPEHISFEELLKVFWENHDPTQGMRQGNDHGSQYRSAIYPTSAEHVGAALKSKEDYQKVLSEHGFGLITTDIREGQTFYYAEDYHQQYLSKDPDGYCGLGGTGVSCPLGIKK

[4] = THP-1 cell cytotoxicity, dose response, cytotoxicity control for non-replicating M. tuberculosis project (AID 489025); assay type: functional
[5] = target: Exodeoxyribonuclease V (Escherichia coli (strain K12), UniProt P04993+P07648+P08394); assay: RecBCD inhibition via phage-restricted bacterial growth – absorbance, V66 E. coli, mutant T4 phage, counter-screen for AddAB inhibitor project, dose response (AID 492957); assay type: functional, cell-based, Escherichia coli str. K-12 substr. MG1655
Exodeoxyribonuclease V, sequence (P04993 whole entry): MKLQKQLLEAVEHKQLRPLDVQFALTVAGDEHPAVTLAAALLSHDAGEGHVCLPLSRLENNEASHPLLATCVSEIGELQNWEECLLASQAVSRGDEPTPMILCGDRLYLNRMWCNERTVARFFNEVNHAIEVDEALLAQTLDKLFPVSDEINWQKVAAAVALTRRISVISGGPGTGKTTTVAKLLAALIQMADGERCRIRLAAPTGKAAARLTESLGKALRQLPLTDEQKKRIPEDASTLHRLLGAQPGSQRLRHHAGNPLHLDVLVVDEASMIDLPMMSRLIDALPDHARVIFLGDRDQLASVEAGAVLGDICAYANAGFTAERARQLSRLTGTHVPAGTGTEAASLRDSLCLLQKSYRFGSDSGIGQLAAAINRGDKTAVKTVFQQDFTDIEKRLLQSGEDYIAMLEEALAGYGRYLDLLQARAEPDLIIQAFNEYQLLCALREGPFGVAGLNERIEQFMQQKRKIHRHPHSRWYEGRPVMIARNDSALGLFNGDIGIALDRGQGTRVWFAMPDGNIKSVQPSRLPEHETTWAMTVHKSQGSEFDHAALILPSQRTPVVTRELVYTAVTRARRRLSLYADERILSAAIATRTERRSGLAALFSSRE
Exodeoxyribonuclease V, sequence (P07648 whole entry): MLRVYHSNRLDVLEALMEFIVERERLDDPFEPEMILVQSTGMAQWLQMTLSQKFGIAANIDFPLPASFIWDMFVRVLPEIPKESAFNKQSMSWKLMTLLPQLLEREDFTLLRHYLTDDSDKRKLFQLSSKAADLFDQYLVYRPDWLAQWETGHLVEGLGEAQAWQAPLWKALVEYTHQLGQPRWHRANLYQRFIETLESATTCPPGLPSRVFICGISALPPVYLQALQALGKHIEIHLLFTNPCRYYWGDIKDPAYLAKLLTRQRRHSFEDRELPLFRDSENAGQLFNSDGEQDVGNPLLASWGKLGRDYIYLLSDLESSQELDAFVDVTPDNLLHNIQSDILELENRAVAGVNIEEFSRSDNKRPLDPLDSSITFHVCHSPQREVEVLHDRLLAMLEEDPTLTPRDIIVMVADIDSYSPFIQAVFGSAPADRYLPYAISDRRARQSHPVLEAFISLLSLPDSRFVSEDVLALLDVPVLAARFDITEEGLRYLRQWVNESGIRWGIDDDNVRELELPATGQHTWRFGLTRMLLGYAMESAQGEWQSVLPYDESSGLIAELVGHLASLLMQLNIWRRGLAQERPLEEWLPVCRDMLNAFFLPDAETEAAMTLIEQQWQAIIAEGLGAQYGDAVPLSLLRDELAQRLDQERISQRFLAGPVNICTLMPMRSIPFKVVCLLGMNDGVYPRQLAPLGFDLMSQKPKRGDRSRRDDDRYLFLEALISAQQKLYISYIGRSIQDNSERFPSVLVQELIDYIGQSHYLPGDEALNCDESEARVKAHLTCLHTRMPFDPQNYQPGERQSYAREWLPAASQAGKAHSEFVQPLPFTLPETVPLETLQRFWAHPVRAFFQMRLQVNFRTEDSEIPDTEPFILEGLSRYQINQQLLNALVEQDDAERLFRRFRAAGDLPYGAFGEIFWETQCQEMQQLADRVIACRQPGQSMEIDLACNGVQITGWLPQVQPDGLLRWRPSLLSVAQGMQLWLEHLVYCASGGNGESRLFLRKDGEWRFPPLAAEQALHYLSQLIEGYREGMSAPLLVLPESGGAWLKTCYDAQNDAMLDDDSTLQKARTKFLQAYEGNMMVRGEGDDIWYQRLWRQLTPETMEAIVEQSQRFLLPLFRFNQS
Exodeoxyribonuclease V, sequence (P08394 whole entry): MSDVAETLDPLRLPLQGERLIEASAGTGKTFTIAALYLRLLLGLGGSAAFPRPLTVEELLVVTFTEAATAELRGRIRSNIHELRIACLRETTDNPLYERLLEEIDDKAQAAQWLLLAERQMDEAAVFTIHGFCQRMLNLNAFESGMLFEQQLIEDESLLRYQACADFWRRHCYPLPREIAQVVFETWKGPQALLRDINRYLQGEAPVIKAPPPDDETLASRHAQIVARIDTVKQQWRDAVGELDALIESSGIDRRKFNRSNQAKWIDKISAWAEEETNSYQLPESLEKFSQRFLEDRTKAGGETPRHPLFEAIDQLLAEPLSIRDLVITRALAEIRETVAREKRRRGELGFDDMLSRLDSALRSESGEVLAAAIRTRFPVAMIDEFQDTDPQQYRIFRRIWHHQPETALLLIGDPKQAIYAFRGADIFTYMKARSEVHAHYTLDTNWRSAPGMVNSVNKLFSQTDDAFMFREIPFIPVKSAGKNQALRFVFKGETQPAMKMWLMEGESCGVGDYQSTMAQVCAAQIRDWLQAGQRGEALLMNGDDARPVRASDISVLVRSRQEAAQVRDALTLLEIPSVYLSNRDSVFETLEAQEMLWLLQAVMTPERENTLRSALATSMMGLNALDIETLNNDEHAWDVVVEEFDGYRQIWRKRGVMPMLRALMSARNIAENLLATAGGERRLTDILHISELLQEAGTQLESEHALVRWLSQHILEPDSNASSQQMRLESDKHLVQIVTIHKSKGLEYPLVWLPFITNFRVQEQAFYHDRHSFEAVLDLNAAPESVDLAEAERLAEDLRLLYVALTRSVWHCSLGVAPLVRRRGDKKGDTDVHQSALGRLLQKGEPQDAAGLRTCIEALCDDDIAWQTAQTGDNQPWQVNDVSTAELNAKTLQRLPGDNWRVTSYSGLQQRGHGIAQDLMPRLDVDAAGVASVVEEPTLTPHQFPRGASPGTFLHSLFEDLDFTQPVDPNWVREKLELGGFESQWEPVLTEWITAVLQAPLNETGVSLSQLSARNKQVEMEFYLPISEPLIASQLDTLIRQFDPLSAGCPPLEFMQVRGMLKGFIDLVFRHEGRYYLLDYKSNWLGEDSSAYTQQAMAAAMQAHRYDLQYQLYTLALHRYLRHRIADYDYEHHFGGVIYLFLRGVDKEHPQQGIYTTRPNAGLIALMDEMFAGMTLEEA

[6] = Counterscreen for AddAB inhibitors: absorbance-based bacterial cell-based high throughput dose response assay for inhibitors of bacterial viability. [Related pubchem assays (depositor defined):AID435030, AID449728, AID449731, AID488942, AID488955, AID488956]; assay type: functional
[7] = target: T2, Eukaryotic translation initiation factor 2-alpha kinase 3 (Homo sapiens, UniProt Q9NZJ5); assay: Dose response cell-based high-throughput screening assay to measure PERK inhibition. [Related pubchem assays: 1416 ]; assay type: functional
T2 sequence (Q9NZJ5 whole entry): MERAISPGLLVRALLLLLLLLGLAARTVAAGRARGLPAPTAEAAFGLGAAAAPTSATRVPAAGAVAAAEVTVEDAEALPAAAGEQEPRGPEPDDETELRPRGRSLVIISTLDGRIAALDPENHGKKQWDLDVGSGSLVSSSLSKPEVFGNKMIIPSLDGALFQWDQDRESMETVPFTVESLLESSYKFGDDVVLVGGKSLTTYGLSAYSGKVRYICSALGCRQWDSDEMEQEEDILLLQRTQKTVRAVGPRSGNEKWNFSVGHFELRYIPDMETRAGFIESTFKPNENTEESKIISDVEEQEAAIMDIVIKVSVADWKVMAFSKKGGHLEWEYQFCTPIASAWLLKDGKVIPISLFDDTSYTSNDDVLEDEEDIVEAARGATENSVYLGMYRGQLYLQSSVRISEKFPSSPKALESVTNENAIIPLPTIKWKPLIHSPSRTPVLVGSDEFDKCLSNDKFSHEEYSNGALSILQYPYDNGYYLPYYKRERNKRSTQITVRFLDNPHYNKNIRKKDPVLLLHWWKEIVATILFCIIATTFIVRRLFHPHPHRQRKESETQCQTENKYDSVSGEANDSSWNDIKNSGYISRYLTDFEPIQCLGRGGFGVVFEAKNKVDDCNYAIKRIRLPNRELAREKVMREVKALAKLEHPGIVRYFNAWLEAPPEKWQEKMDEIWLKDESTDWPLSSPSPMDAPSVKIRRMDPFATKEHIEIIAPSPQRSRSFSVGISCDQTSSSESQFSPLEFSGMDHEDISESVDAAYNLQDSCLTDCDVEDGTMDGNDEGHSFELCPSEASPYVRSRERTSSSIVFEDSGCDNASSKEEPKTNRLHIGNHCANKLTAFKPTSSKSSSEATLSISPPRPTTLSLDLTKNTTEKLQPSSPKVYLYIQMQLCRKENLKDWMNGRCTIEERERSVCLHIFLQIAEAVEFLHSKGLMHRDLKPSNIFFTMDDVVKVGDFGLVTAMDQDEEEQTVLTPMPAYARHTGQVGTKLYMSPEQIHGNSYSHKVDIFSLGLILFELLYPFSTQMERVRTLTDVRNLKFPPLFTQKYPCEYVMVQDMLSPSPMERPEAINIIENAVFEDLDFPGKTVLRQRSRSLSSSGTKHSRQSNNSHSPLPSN

[8] = target: T2, Eukaryotic translation initiation factor 2-alpha kinase 3; assay: Counterscreen assay for PERK inhibitors: Dose response cell-based high throughput screening assay to measure inhibition of PERK at 6 hours. [Related pubchem assays: 1522, 1416 ]; assay type: functional
[9] = target: T3, Voltage-gated N-type calcium channel alpha-1B subunit/Amyloid beta A4 precursor protein-binding family A member 1 (Homo sapiens, UniProt Q00975+Q02410); assay type: protein assay
[10] = target: T3, Voltage-gated N-type calcium channel alpha-1B subunit/Amyloid beta A4 precursor protein-binding family A member 1; assay type: protein assay; remark: listed apart in the source
[11] = target: Aspartyl aminopeptidase (Plasmodium falciparum 3D7, UniProt Q8I2J3)
Aspartyl aminopeptidase, sequence (Q8I2J3 whole entry): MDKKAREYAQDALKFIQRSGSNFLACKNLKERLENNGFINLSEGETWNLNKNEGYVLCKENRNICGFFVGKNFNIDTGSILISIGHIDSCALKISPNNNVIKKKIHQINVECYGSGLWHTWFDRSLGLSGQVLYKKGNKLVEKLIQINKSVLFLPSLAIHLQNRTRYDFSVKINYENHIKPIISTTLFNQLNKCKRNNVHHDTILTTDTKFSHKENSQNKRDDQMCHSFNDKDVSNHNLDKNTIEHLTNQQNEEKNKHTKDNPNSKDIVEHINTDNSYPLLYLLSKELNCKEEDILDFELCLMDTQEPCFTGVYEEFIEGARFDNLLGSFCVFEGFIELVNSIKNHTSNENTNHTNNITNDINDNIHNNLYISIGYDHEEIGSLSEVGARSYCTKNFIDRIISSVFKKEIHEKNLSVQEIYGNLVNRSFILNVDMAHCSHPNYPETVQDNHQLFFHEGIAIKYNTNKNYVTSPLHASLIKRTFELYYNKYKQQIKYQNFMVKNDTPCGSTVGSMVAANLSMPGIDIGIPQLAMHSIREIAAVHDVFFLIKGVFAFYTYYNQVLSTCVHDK

[12] = target: Procathepsin L (Homo sapiens, UniProt P07711)
Procathepsin L, sequence (P07711 whole entry): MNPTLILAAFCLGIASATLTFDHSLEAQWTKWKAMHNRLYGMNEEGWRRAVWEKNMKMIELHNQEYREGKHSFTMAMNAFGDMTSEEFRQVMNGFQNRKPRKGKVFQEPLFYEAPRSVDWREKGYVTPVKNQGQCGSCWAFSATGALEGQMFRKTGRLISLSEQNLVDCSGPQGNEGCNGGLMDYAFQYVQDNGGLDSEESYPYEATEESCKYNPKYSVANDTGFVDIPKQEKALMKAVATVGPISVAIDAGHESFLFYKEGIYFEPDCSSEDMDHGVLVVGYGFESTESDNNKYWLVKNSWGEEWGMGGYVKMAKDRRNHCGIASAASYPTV

[13] = HEK-293T cell viability reduction – luminescence, B-cell screen hits, cytotoxicity control for BCR NF-kB inhibitor project, dose response (AID 489021); assay type: functional, cell-based;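 note: HEK-293T cells carrying an NF-kB luciferase reporter; cells exposed to compound for about 14 hours before viability readout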
[14] = tested on: BJ; assay: BJ-TERT fibroblast viability loss – cell-based, RAS-independent, luminescence, dose response (AID 1933); assay type: functional; conditions: Homo sapiens
[15] = tested on: BJ; assay: cells; assay type: functional, cell-based; conditions: Homo sapiens
[16] = tested on: BJ; assay: growth inhibition of engineered Ras-driven BJ cells – cell-based, alamar blue fluorescence, cherrypicked samples, dose response (AID 2631); assay type: functional; conditions: Homo sapiens;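 note: confirmatory dose-response assay in RAS-dependent BJ fibroblasts engineered with TERT, LT and ST, with cytotoxicity read by fluorescence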
[17] = DRD fibroblast viability loss – cell-based, non-viral oncogenic, luminescence, dose response (AID 1934); assay type: functional; conditions: Homo sapiens
[18] = MIN6 cell viability loss – mouse insulinoma, cytotoxicity control, dose response (AID 2122); assay type: functional;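 note: confirmatory high-throughput counterscreen run to flag cytotoxic compounds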
[19] = decrease of insulin promoter-GFP reporter – imaging, high-content screening, mouse beta cells (AID 1628); assay type: functional; conditions: MIN6
[20] = tested on: BJ; assay: BJ-TERT-LT-ST fibroblast viability loss – cell-based, RAS-independent, luminescence, dose response (AID 1935); assay type: functional; conditions: Homo sapiens;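 note: BJ fibroblasts immortalized with TERT plus LT and ST oncogenes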

G-protein coupled receptor 35, sequence (Q9HC97 whole entry): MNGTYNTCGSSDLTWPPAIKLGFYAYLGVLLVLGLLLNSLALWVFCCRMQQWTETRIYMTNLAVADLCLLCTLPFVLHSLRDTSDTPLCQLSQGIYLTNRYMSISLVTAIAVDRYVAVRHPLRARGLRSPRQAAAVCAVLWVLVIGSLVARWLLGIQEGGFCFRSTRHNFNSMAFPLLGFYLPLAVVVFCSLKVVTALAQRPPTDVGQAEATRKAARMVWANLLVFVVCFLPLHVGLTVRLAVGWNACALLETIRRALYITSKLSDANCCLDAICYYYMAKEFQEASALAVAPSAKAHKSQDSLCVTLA

CCN(CC)c1ccc(-c2sc(Nc3ccccc3)n[n+]2-c2ccc(F)cc2)cc1
IC50 [1]: 0.626 µM (active)
IC50 [2]: 14 µM (active)
EC50 [3]: > 104 µM (inactive)
CC50 [4]: 26.4 µM (active)

COc1ccc(Nc2nnc(SCc3cn4c(C)cccc4n3)s2)cc1
IC50 [5]: > 119 µM (inactive)
IC50 [6]: > 119 µM (inactive)

CC(C)(C)c1ccc(C(=O)Oc2ccccc2CCC(=O)O)cc1
EC50 [7]: > 55.7 µM (not active)
EC50 [8]: > 55.7 µM (not active)

CCn1cc(C(=O)NCCc2ccccc2)c(=O)c2cc(F)c(N3CCN(C)CC3)cc21
IC50 [5]: > 118 µM (inactive)
IC50 [6]: 27.1 µM (inactive)

Nc1ccc2[nH]c(-c3ccc(N)c(Cl)c3)nc2c1
IC50 [9]: 35.6 µM (active)
IC50 [10]: 4.1 µM (active)

c1ccc(NCn2cncn2)nc1
IC50 [11]: 2.56 µM (active)
IC50 [12]: > 59.6 µM (not active)

COc1ccc(-c2ccoc2)cc1[C@H]1[C@H]2C=CC[C@@H](C)[C@@H]2C(=O)N1Cc1ccccc1
IC50 [13]: > 80 µM (inactive)

O=C(NCc1cccnc1)c1ccc(NC(=O)c2cccc([N+](=O)[O-])c2)cc1
EC50 [14]: 27.4 µM (active)
EC50 [15]: 2.19 µM (inconclusive)
EC50 [16]: 36 µM (active)
EC50 [17]: > 150 µM (not active)
IC50 [18]: > 16 µM (inactive)
IC50 [19]: 0.576 µM (active)
EC50 [20]: 19.3 µM (active)

CCn1nc(C)c(CN2CCc3c([nH]c4ccccc34)C2c2ccc(F)c(OC)c2)c1C (centres undefined)
IC50 [18]: 13.6 µM (inactive)
IC50 [19]: 2.29 µM (active)
